The record followed here is US7465745B2, “Cathepsin S inhibitors” (Boehringer Ingelheim Pharmaceuticals, Inc., priority 2003, dated 2008).

The structures appear in SMILES notation.

The target in the experiment is T1, Human recombinant cathepsin S (Homo sapiens, UniProt P25774).
T1 construct: made in house; host or cells: Sf9 insect cells (baculovirus, pFastBac1)
The experiment in a line: Inhibition of Cathepsin S. Type of experiment: biochemical. The following applies: 10 nM enzyme, pH 6.5, 37° C., fluorescence 360/460 nm.

T1 sequence (P25774 115-331): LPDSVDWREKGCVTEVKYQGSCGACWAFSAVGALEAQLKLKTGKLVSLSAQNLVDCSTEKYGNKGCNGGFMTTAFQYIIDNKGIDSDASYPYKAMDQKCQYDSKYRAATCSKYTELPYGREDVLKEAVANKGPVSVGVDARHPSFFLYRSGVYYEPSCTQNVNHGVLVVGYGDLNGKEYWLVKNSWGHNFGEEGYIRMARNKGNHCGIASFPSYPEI
Experimental: U937 RNA was subjected to reverse transcriptase/polymerase chain reaction with primer A (5′[sequence] 3′) and primer B (5′[sequence] 3′) designed to specifically amplify the cathepsin S cDNA. The resulting 900 bp DNA fragment was subcloned into pGEM-T (Promega) and sequenced to confirm its identity. This construct was used for all subsequent manipulations.
The ligation mixture was used to transform DH5a competent cells (GibcoBRL) and plated on LB plates containing 100 ug/ml ampicillin. Colonies were grown in overnight cultures of LB media containing 50 ug/ml Ampicillin, plasmid DNA isolated and correct insert confirmed by restriction enzyme digestion. Recombinant pFastBac donor plasmid was transformed into DH10Bac competent cells (GibcoBRL). Large white colonies were picked from LB plates containing 50 ug/ml kanamycin, 7 ug/ml gentamicin, 10 ug/ml tetracycline, 100 ug/ml Bluo-gal, and 40 ug/ml IPTG. DNA was isolated and used to transfect Sf9 insect cells using CellFECTIN reagent (GibcoBRL). Cells and supernatant were harvested after 72 hours. Viral supernatant was passaged twice and presence of Cat S confirmed by PCR of the supernatant. […]
Human recombinant cathepsin S expressed in Baculovirus is used at a final concentration of 10 nM in buffer. […] Compound activity is measured by diminished fluorescence compared to DMSO control when read at 360 nm excitation and 460 nm emission.

Consider `CCC(C)(C)CC[C@@H](NC(=O)N1CCOCC1)C(=O)NC1(C#N)CCN(C)CC1` [Morpholine-4-carboxylic acid [(R)-1-(4-cyano-1-methyl-piperidine-4-ylcarbamoyl)-4,4-dimethyl-hexyl]-amide], for which the IC50 was above 100 nM.
